In US8952024B2, “Herbicidal pyrimidone derivatives” (E I du Pont de Nemours and Company, priority 2009, dated 2015):

Experiments:
Assay in all cases: Test B pre-/postemergence plant response
Assay type in all cases: in vivo
[1] = test system: giant foxtail (Setaria faberii)
Method in brief: (§1)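 Plants treated either at seeding (loam/sand soil) or postemergence at 2 to 18 cm height, using a surfactant-containing non-phytotoxic solvent formulation. Evaluation was visual after 13 to 15 days, 0 to 100 scale relative to controls.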

[2] = test system: Italian ryegrass (Lolium multiflorum)
Method in brief: as §1

[3] = test system: johnsongrass (Sorghum halepense)
Method in brief: as §1

[4] = test system: ragweed (common ragweed, Ambrosia elatior)
Method in brief: as §1

[5] = test system: bermudagrass (Cynodon dactylon)
Method in brief: as §1

[6] = test system: goosegrass (Eleusine indica)
Method in brief: as §1

[7] = test system: large crabgrass (Digitaria sanguinalis)
Method in brief: as §1

[8] = test system: lambsquarters (Chenopodium album)
Method in brief: as §1

[9] = test system: green foxtail (Setaria viridis)
Method in brief: as §1

[10] = test system: Surinam grass (Brachiaria decumbens)
Method in brief: as §1

corn (Zea mays) = test system: corn (Zea mays)
Method in brief: as §1

[11] = test system: velvetleaf (Abutilon theophrasti)
Method in brief: as §1

[12] = test system: woolly cupgrass (Eriochloa villosa)
Method in brief: as §1

[13] = test system: downy bromegrass (Bromus tectorum)
Method in brief: as §1

[14] = test system: yellow nutsedge (Cyperus esculentus)
Method in brief: as §1

[15] = test system: blackgrass (Alopecurus myosuroides)
Method in brief: as §1

kochia (Kochia scoparia) = test system: kochia (Kochia scoparia)
Method in brief: as §1

[16] = 16 g ai/ha, Postemergence, 0 to 100 scale
[17] = 31 g ai/ha, postemergence, scale 0 to 100, 0 is no effect, 100 is complete control
[18] = 62 g ai/ha, postemergence, 0 is no effect, 100 is complete control, 13 to 15 days
[19] = Postemergence, 125 g ai/ha, visual rating after 13 to 15 days, scale 0 (no effect) to 100 (complete control)
[20] = Preemergence, 16 g ai/ha, scale 0 to 100, 0 no effect, 100 complete control
[21] = Preemergence, 31 g ai/ha, scale 0 to 100 (0 no effect, 100 complete control)
[22] = Preemergence, 62 g ai/ha, scale 0 to 100, 0 no effect, 100 complete control
[23] = Preemergence, 125 g ai/ha, scale 0 to 100, 0 no effect, 100 complete control

O=C1CCCC(O)=C1C(=O)c1cnc(-c2cccc(Br)c2)n(-c2ccccc2)c1=O [Compound 69]
Plant response rating, Foxtail, Giant [1, 16]: 80 | Plant response rating, Foxtail, Giant [1, 17]: 95 | Foxtail, Giant plant response rating (0 to 100 scale) [1, 18]: 98 | Plant response rating, Foxtail, Giant [1, 19]: 98 | Plant response rating, Foxtail, Giant [1, 20]: 0 | Plant response rating, Foxtail, Giant [1, 21]: 5 | Plant response rating, Foxtail, Giant [1, 22]: 75 | Plant response rating, Foxtail, Giant [1, 23]: 90 | Plant response rating, Ryegrass, Italian [2, 16]: 0 | Plant response rating, Ryegrass, Italian [2, 17]: 30 | Ryegrass, Italian plant response rating (0 to 100 scale) [2, 18]: 50 | Plant response rating, Ryegrass, Italian [2, 19]: 50 | Plant response rating, Ryegrass, Italian [2, 21]: 0 | Plant response rating, Ryegrass, Italian [2, 22]: 0 | Plant response rating, Ryegrass, Italian [2, 23]: 0 | Plant response rating, Johnsongrass [3, 16]: 75 | Plant response rating, Johnsongrass [3, 17]: 98 | Johnsongrass plant response rating (0 to 100 scale) [3, 18]: 100 | Plant response rating, Johnsongrass [3, 19]: 100 | Plant response rating, Johnsongrass [3, 20]: 0 | Plant response rating, Johnsongrass [3, 21]: 5 | Plant response rating, Johnsongrass [3, 22]: 45 | Plant response rating, Johnsongrass [3, 23]: 85 | Plant response rating, Ragweed [4, 16]: 75 | Plant response rating, Ragweed [4, 17]: 90 | Ragweed plant response rating (0 to 100 scale) [4, 18]: 90 | Plant response rating, Ragweed [4, 19]: 100 | Plant response rating, Ragweed [4, 21]: 65 | Plant response rating, Ragweed [4, 22]: 65 | Plant response rating, Ragweed [4, 23]: 65 | Plant response rating, Bermudagrass [5, 16]: 85 | Plant response rating, Bermudagrass [5, 17]: 98 | Bermudagrass plant response rating (0 to 100 scale) [5, 18]: 98 | Plant response rating, Bermudagrass [5, 19]: 98 | Plant response rating, Bermudagrass [5, 20]: 90 | Plant response rating, Bermudagrass [5, 21]: 98 | Plant response rating, Bermudagrass [5, 22]: 100 | Plant response rating, Bermudagrass [5, 23]: 100 | Plant response rating, Goosegrass [6, 16]: 75 | Plant response rating, Goosegrass [6, 17]: 75 | Goosegrass plant response rating (0 to 100 scale) [6, 18]: 80 | Plant response rating, Goosegrass [6, 19]: 85 | Plant response rating, Goosegrass [6, 20]: 55 | Plant response rating, Goosegrass [6, 21]: 95 | Plant response rating, Goosegrass [6, 22]: 100 | Plant response rating, Goosegrass [6, 23]: 100 | Plant response rating, Crabgrass, Large [7, 16]: 95 | Plant response rating, Crabgrass, Large [7, 17]: 95 | Crabgrass, Large plant response rating (0 to 100 scale) [7, 18]: 95 | Plant response rating, Crabgrass, Large [7, 19]: 98 | Plant response rating, Crabgrass, Large [7, 20]: 75 | Plant response rating, Crabgrass, Large [7, 21]: 98 | Plant response rating, Crabgrass, Large [7, 22]: 100 | Plant response rating, Crabgrass, Large [7, 23]: 100 | Plant response rating, Lambsquarters [8, 16]: 100 | Plant response rating, Lambsquarters [8, 17]: 100 | Lambsquarters plant response rating (0 to 100 scale) [8, 18]: 100 | Plant response rating, Lambsquarters [8, 19]: 100 | Plant response rating, Lambsquarters [8, 20]: 95 | Plant response rating, Lambsquarters [8, 21]: 98 | Plant response rating, Lambsquarters [8, 22]: 100 | Plant response rating, Lambsquarters [8, 23]: 100 | Plant response rating, Foxtail, Green [9, 16]: 75 | Plant response rating, Foxtail, Green [9, 17]: 95 | Foxtail, Green plant response rating (0 to 100 scale) [9, 18]: 98 | Plant response rating, Foxtail, Green [9, 19]: 100 | Plant response rating, Foxtail, Green [9, 22]: 70 | Plant response rating, Foxtail, Green [9, 23]: 85 | Plant response rating, Surinam Grass [10, 16]: 75 | Plant response rating, Surinam Grass [10, 17]: 85 | Surinam Grass plant response rating (0 to 100 scale) [10, 18]: 90 | Plant response rating, Surinam Grass [10, 19]: 100 | Plant response rating, Surinam Grass [10, 21]: 80 | Plant response rating, Surinam Grass [10, 22]: 100 | Plant response rating, Surinam Grass [10, 23]: 100 | Plant response rating, Corn (corn (Zea mays); [16]): 0 | Plant response rating, Corn (corn (Zea mays); [17]): 5 | Corn plant response rating (0 to 100 scale) (corn (Zea mays); [18]): 10 | Plant response rating, Corn (corn (Zea mays); [19]): 25 | Plant response rating, Corn (corn (Zea mays); [20]): 0 | Plant response rating, Corn (corn (Zea mays); [21]): 0 | Plant response rating, Corn (corn (Zea mays); [22]): 0 | Plant response rating, Corn (corn (Zea mays); [23]): 0 | Plant response rating, Velvetleaf [11, 16]: 75 | Plant response rating, Velvetleaf [11, 17]: 95 | Velvetleaf plant response rating (0 to 100 scale) [11, 18]: 98 | Plant response rating, Velvetleaf [11, 19]: 98 | Plant response rating, Velvetleaf [11, 21]: 70 | Plant response rating, Velvetleaf [11, 22]: 70 | Plant response rating, Velvetleaf [11, 23]: 85 | Plant response rating, Cupgrass, Woolly [12, 16]: 75 | Plant response rating, Cupgrass, Woolly [12, 17]: 90 | Cupgrass, Woolly plant response rating (0 to 100 scale) [12, 18]: 95 | Plant response rating, Cupgrass, Woolly [12, 19]: 95 | Plant response rating, Cupgrass, Woolly [12, 20]: 0 | Plant response rating, Cupgrass, Woolly [12, 21]: 0 | Plant response rating, Cupgrass, Woolly [12, 22]: 0 | Plant response rating, Cupgrass, Woolly [12, 23]: 45 | Plant response rating, Bromegrass, Downy [13, 16]: 30 | Plant response rating, Bromegrass, Downy [13, 17]: 40 | Bromegrass, Downy plant response rating (0 to 100 scale) [13, 18]: 55 | Plant response rating, Bromegrass, Downy [13, 19]: 70 | Plant response rating, Bromegrass, Downy [13, 20]: 0 | Plant response rating, Bromegrass, Downy [13, 21]: 0 | Plant response rating, Bromegrass, Downy [13, 22]: 0 | Plant response rating, Bromegrass, Downy [13, 23]: 0 | Plant response rating, Nutsedge, Yellow [14, 16]: 5 | Plant response rating, Nutsedge, Yellow [14, 17]: 5 | Nutsedge, Yellow plant response rating (0 to 100 scale) [14, 18]: 10 | Plant response rating, Nutsedge, Yellow [14, 19]: 40 | Plant response rating, Nutsedge, Yellow [14, 20]: 0 | Plant response rating, Nutsedge, Yellow [14, 21]: 0 | Plant response rating, Nutsedge, Yellow [14, 22]: 0 | Plant response rating, Nutsedge, Yellow [14, 23]: 0 | Plant response rating, Blackgrass [15, 16]: 0 | Plant response rating, Blackgrass [15, 17]: 0 | Blackgrass plant response rating (0 to 100 scale) [15, 18]: 0 | Plant response rating, Blackgrass [15, 19]: 0 | Plant response rating, Blackgrass [15, 20]: 0 | Plant response rating, Blackgrass [15, 21]: 0 | Plant response rating, Blackgrass [15, 22]: 0 | Plant response rating, Blackgrass [15, 23]: 0 | Plant response rating, Kochia (kochia (Kochia scoparia); [16]): 60 | Plant response rating, Kochia (kochia (Kochia scoparia); [17]): 60 | Kochia plant response rating (0 to 100 scale) (kochia (Kochia scoparia); [18]): 70 | Plant response rating, Kochia (kochia (Kochia scoparia); [19]): 80 | Plant response rating, Kochia (kochia (Kochia scoparia); [21]): 0 | Plant response rating, Kochia (kochia (Kochia scoparia); [22]): 20 | Plant response rating, Kochia (kochia (Kochia scoparia); [23]): 45
